Patent publication US6881741B2 (ViroChem Pharma Inc., priority 2001, dated 2005)
Like-named read-outs stand apart in the source and are kept apart here.

Biological target: recombinant HCV NS5B (HCV RNA-dependent RNA polymerase) (Hepatitis C virus genotype 1b, UniProt P26663)
Assay: biochemical
[1] = related polymerase activity (Example 27 list), read-out: IC50
[2] = HCV polymerase activity, list of compounds of Example 27, read-out: IC50 (polymerase activity)

Sequence of recombinant HCV NS5B (HCV RNA-dependent RNA polymerase) (P26663 2420-3010 limits assumed): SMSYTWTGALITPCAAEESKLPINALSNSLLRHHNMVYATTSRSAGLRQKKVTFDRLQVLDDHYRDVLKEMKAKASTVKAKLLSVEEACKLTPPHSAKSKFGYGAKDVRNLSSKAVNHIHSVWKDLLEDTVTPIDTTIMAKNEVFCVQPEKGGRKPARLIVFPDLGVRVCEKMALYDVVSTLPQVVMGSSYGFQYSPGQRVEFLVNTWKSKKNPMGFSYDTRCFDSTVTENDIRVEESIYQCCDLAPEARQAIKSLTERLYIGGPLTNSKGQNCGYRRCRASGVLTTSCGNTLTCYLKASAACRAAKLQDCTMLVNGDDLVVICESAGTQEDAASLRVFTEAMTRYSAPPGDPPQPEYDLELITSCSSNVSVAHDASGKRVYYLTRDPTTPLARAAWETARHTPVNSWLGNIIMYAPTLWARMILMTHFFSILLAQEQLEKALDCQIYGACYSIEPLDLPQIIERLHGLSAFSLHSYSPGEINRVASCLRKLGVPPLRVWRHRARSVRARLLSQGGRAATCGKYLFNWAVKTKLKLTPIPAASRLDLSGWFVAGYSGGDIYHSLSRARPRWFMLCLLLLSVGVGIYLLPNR

Cc1ccc(C(=O)N(C)c2cc(-c3cccc([N+](=O)[O-])c3)sc2C(=O)O)cc1 [Compound 196, 3-[METHYL-(4-METHYL-BENZOYL)-AMINO]-5-(3-NITRO-PHENYL)-THIOPHENE-2-CARBOXYLIC ACID]
IC50 [1]: < 5 µM

O=C(O)c1sc(-c2ccccc2)cc1NS(=O)(=O)c1ccc(Cl)cc1 [Compound 18, 3-(4-CHLORO-BENZENESULFONYLAMINO)-5-PHENYL-THIOPHENE-2-CARBOXYLIC ACID]
IC50 [1]: < 5 µM

CN(C(=O)c1ccc(C(F)(F)F)c(F)c1)c1cc(-c2ccccc2)sc1C(=O)O [Compound 279, 3-[(3-FLUORO-4-TRIFLUOROMETHYL-BENZOYL)-METHYL-AMINO]-5-PHENYL-THIOPHENE-2-CARBOXYLIC ACID]
IC50 [1]: 5 to 20 µM

CN(C(=O)CCC1CCCC1)c1cc(-c2ccccc2)sc1C(=O)O [Compound 384, 3-[(3-CYCLOPENTYL-PROPIONYL)- METHYL-AMINO]-5-PHENYL-THIOPHENE- 2-CARBOXYLIC ACID]
IC50 [1]: < 5 µM

Cc1ccc(C(=O)N(c2cc(-c3ccccc3)sc2C(=O)O)C(C)C)c(/C=N/O)c1 [Compound 505, 3-{[2-(HYDROXYIMINO-METHYL)-4- METHYL-BENZOYL]-ISOPROPYL-AMINO)-5- PHENYL-THIOPHENE-2-CARBOXYLIC ACID]
IC50 [2]: 5 to 20 µM

Cc1ccccc1S(=O)(=O)Nc1cc(-c2cccc3cccnc23)sc1C(=O)O [Compound 61, 5-QUINOLIN-8-YL-3-(TOLUENE-2-SULFONYLAMINO)-THIOPHENE-2-CARBOXYLIC ACID]
IC50 [1]: > 20 µM

COc1ccc(-c2cc(NS(=O)(=O)c3ccccc3C)c(C(=O)O)s2)cc1 [Compound 122, 5-(4-METHOXY-PHENYL)-3-(TOLUENE-2-SULFONYLAMINO)-THIOPHENE-2-CARBOXYLIC ACID]
IC50 [1]: < 5 µM

Cc1ccccc1S(=O)(=O)Nc1cc(-c2ccc3c(c2)OCO3)sc1C(=O)O [Compound 202, 5-BENZO[1,3]DIOXOL-5-YL-3-(TOLUENE-2-SULFONYLAMINO)-THIOPHENE-2-CARBOXYLIC ACID]
IC50 [1]: < 5 µM

O=C(O)c1sc(-c2ccccc2)cc1NS(=O)(=O)c1cccc(F)c1 [Compound 49, 3-(3-FLUORO-BENZENESULFONYLAMINO)-5-PHENYL-THIOPHENE-2-CARBOXYLIC ACID]
IC50 [1]: < 5 µM

CN(C(=O)c1ccccc1Cl)c1cc(-c2ccccc2)sc1C(=O)O [Compound 95, 3-[(2-CHLORO-BENZOYL)-METHYL-AMINO]-5-PHENYL-THIOPHENE-2-CARBOXYLIC ACID]
IC50 [1]: 5 to 20 µM

CCS(=O)(=O)Nc1cc(-c2ccccc2)sc1C(=O)O [Compound 242, 3-ETHANESULFONYLAMINO-5-PHENYL-THIOPHENE-2-CARBOXYLIC ACID]
IC50 [1]: 5 to 20 µM

Cc1ccccc1S(=O)(=O)Nc1cc(-c2cc3ccccc3s2)sc1C(=O)O [Compound 230, 5-BENZO[B]THIOPHEN-2-YL-3-(TOLUENE-2-SULFONYLAMINO)-THIOPHENE-2-CARBOXYLIC ACID]
IC50 [1]: < 5 µM

Cc1cc(Cl)ccc1S(=O)(=O)Nc1cc(-c2ccccc2)sc1C(=O)O [Compound 372, 3-(4-CHLORO-2-METHYL- BENZENESULFONYLAMINO)-5-PHENYL- THIOPHENE-2-CARBOXYLIC ACID]
IC50 [1]: < 5 µM

Cc1ccc(S(=O)(=O)Nc2cc(-c3ccc(/C=C/C(=O)O)cc3)sc2C(=O)O)c(C)c1 [Compound 322, 5-[4-(2-CARBOXY-VINYL)-PHENYL]-3-(2,4- DIMETHYL-BENZENESULFONYLAMINO)- THIOPHENE-2-CARBOXYLIC ACID]
IC50 [1]: < 5 µM

CCCC(=O)N(Cc1ccccc1Cl)c1cc(-c2ccccc2)sc1C(=O)O [Compound 447, 3-[BUTYRYL-(2-CHLORO-BENZYL)- AMINO]-5-PHENYL-THIOPHENE-2- CARBOXYLIC ACID]
IC50 [2]: < 5 µM

Cc1ccc(C(=O)N(c2cc(-c3cccc(C)c3)sc2C(=O)O)C(C)C)cc1 [Compound 305, 3-[ISOPROPYL-(4-METHYL-BENZOYL)- AMINO]-5-M-TOLYL-THIOPHENE-2- CARBOXYLIC ACID]
IC50 [1]: < 5 µM

O=C(O)c1sc(-c2ccccc2)cc1N(Cc1ccc(C(F)(F)F)cc1)C(=O)C1CCC1 [Compound 414, 3-[CYCLOBUTANECARBONYL-(4- TRIFLUOROMETHYL-BENZYL)-AMINO]-5- PHENYL-THIOPHENE-2-CARBOXYLIC ACID]
IC50 [2]: 5 to 20 µM

O=C(O)c1sc(-c2ccccc2)cc1N(Cc1ccccc1)C(=O)C1CC1 [Compound 454, 3-(BENZYL-CYCLOPROPANECARBONYL- AMINO)-5-PHENYL-THIOPHENE-2- CARBOXYLIC ACID]
IC50 [2]: < 5 µM

CC1CCC(C(=O)N(c2cc(C3CCN(C)CC3)sc2C(=O)O)C(C)C)CC1 (stereo not shown) [Compound 536, 3-[ISOPROPYL-(4-METHYL- CYCLOHEXANECARBONYL)-AMINO]-5-(1- METHYL-PIPERIDIN-4-YL)-THIOPHENE-2- CARBOXYLIC ACID]
IC50 [2]: < 5 µM

CC(C)(C)c1ccc(CN(C(=O)C2CCCCC2)c2cc(-c3ccccc3)sc2C(=O)O)cc1 [Compound 441, 3-[(4-TERT-BUTYL-BENZYL)- CYCLOHEXANECARBONYL-AMINO]-5- PHENYL-THIOPHENE-2-CARBOXYLIC ACID]
IC50 [2]: < 5 µM

O=C(O)c1sc(-c2ccccc2)cc1N(Cc1ccc(Cl)cc1)C(=O)C1CC1 [Compound 459, 3-[(4-CHLORO-BENZYL)- CYCLOPROPANECARBONYL-AMINO]-5- PHENYL-THIOPHENE-2-CARBOXYLIC ACID]
IC50 [2]: 5 to 20 µM

Cc1ccc(C(=O)N(C)c2cc(-c3ccccc3F)sc2C(=O)O)cc1 [Compound 266, 5-(2-FLUORO-PHENYL)-3-[METHYL-(4-METHYL-BENZOYL)-AMINO]-THIOPHENE-2-CARBOXYLIC ACID]
IC50 [1]: < 5 µM

CC(C)C(=O)N(Cc1ccc(C(C)(C)C)cc1)c1cc(-c2ccccc2)sc1C(=O)O [Compound 437, 3-[(4-TERT-BUTYL-BENZYL)- ISOBUTYRYL-AMINO]-5-PHENYL- THIOPHENE-2-CARBOXYLIC ACID]
IC50 [2]: 5 to 20 µM

O=C(O)c1sc(-c2ccccc2)cc1N(CC1CCNCC1)C(=O)c1ccccc1Cl [Compound 520, 3-[(2-CHLORO-BENZOYL)-PIPERIDIN-4- YLMETHYL-AMINO]-5-PHENYL- THIOPHENE-2-CARBOXYLIC ACID]
IC50 [2]: < 5 µM

CC(C)N(c1cc(-c2ccccc2)sc1C(=O)O)C(=O)[C@]1(C)CC[C@@H](C)CC1 [Compound 500, 3-[(1,4-DIMETHYL- CYCLOHEXANECARBONYL)-ISOPROPYL- AMINO]-5-PHENYL-THIOPHENE-2- CARBOXYLIC ACID]
IC50 [2]: < 5 µM

CCC(=O)N(Cc1ccc(C(F)(F)F)cc1)c1cc(-c2ccccc2)sc1C(=O)O [Compound 410, 5-PHENYL-3-[PROPIONYL-(4- TRIFLUOROMETHYL-BENZYL)-AMINO]- THIOPHENE-2-CARBOXYLIC ACID]
IC50 [2]: 5 to 20 µM

Cc1ccc(S(=O)(=O)Nc2cc(-c3ccccc3)sc2C(N)=O)c(C)c1 [Compound 568, 3-(2,4-DIMETHYL- BENZENESULFONYLAMINO)-5-PHENYL- THIOPHENE-2-CARBOXYLIC ACID AMIDE]
IC50 [2]: 5 to 20 µM

O=C(O)c1sc(-c2ccccc2)cc1N(C(=O)c1ccc(Cl)cc1Cl)C1CC[C@@H](C(=O)O)C1 (stereo in doubt) [Compound 547, 3-[(3-CARBOXY-CYCLOPENTYL)-(2,4- DICHLORO-BENZOYL)-AMINO]-5- PHENYL-THIOPHENE-2-CARBOXYLIC ACID]
IC50 [2]: < 5 µM

Cc1ccc(S(=O)(=O)Nc2c(C(=O)O)sc(-c3ccccc3)c2C)c(C)c1 [Compound 308, 3-(2,4-DIMETHYL- BENZENESULFONYLAMINO)-4-METHYL- 5-PHENYL-THIOPHENE-2-CARBOXYLIC ACID]
IC50 [1]: 5 to 20 µM

CCN(CC)c1ncc(CN(C(=O)c2ccc(Cl)cc2Cl)c2cc(-c3ccccc3)sc2C(=O)O)s1 [Compound 557, 3-[(2,4-DICHLORO-BENZOYL)-(2- DIETHYLAMINO-THIAZOL-5-YLMETHYL)- AMINO]-5-PHENYL-THIOPHENE-2- CARBOXYLIC ACID]
IC50 [2]: < 5 µM

CC(C)N(C(=O)c1cc(F)c(Cl)cc1F)c1cc(-c2ccccc2)sc1C(=O)O [Compound 337, 3-[(4-CHLORO-2,5-DIFLUORO-BENZOYL)- ISOPROPYL-AMINO]-5-PHENYL- THIOPHENE-2-CARBOXYLIC ACID]
IC50 [1]: 5 to 20 µM

Cc1ccccc1S(=O)(=O)Nc1cc(-c2cccc(Cl)c2)sc1C(=O)O [Compound 65, 5-(3-CHLORO-PHENYL)-3-(TOLUENE-2-SULFONYLAMINO)-THIOPHENE-2-CARBOXYLIC ACID]
IC50 [1]: < 5 µM

CN(C(=O)c1sccc1Cl)c1cc(-c2ccccc2)sc1C(=O)O [Compound 186, 3-[(3-CHLORO-THIOPHENE-2-CARBONYL)-METHYL-AMINO]-5-PHENYL-THIOPHENE-2-CARBOXYLIC ACID]
IC50 [1]: 5 to 20 µM

Cc1ccc(S(=O)(=O)N(C)c2cc(-c3ccccc3)sc2C(=O)O)c(C)c1 [Compound 235, 3-[(2,4-DIMETHYL-BENZENESULFONYL)-METHYL-AMINO]-5-PHENYL-THIOPHENE-2-CARBOXYLIC ACID]
IC50 [1]: < 5 µM

O=C(O)c1sc(-c2ccccc2)cc1N(Cc1ccccc1)C(=O)c1ccc(Cl)cc1Cl [Compound 233, 3-[BENZYL-(2,4-DICHLORO-BENZOYL)-AMINO]-5-PHENYL-THIOPHENE-2-CARBOXYLIC ACID]
IC50 [1]: < 5 µM

Cc1ccccc1S(=O)(=O)Nc1cc(-c2sccc2C)sc1C(=O)O [Compound 105, 3′-METHYL-4-(TOLUENE-2-SULFONYLAMINO)-[2,2′]BITHIOPHENYL-5-CARBOXYLIC ACID]
IC50 [1]: 5 to 20 µM

Cc1ccccc1S(=O)(=O)Nc1cc(CCc2ccccc2)sc1C(=O)O [Compound 120, 5-PHENETHYL-3-(TOLUENE-2-SULFONYLAMINO)-THIOPHENE-2-CARBOXYLIC ACID]
IC50 [1]: 5 to 20 µM

CC(C)c1ccc(S(=O)(=O)Nc2cc(-c3ccccc3)sc2C(=O)O)cc1 [Compound 43, 3-(4-ISOPROPYL-BENZENESULFONYLAMINO)-5-PHENYL-THIOPHENE-2-CARBOXYLIC ACID]
IC50 [1]: 5 to 20 µM

CC(C)N(C(=O)c1ccc(Cl)cc1Cl)c1cc(-c2ccc([S+](C)[O-])cc2)sc1C(=O)O (stereo not shown) [Compound 374, 3-[(2,4-DICHLORO-BENZOYL)- ISOPROPYL-AMINO]-5-(4- METHANESULFINYL-PHENYL)- THIOPHENE-2-CARBOXYLIC ACID]
IC50 [1]: < 5 µM

CC1CCC(C(=O)N(c2cc(-c3ccccc3)sc2C(=O)O)C(C)C)C(O)C1 (stereo not shown) [Compound 402, 3-[(2-HYDROXY-4-METHYL- CYCLOHEXANECARBONYL)-ISOPROPYL- AMINO]-5-PHENYL-THIOPHENE-2- CARBOXYLIC ACID]
IC50 [2]: < 5 µM
